Values quoted from earlier work as cited in US11485730B2, “Compositions and methods for the treatment of fungal infections” (Cellix Bio Private Limited, priority 2016, dated 2022).
Where two headings read alike, the source gives them in different places.

Experiments:
[1] = tested on: various oral pathogenic microorganisms
[2] = tested on: oral streptococci and periodontopathogens
[3] = among the long-chain fatty acids
[4] = tested on: C. albicans
[5] = tested on: Candida Species

CCCCC/C=C\C/C=C\C/C=C\CCCCC(=O)O [GLA, gamma linoleic acid]
anti-microbial activity ([1]; in vitro studies, various oral pathogenic microorganisms): significant anti-microbial activity | antimicrobial activities ([1]; various oral microorganisms, including S. mutans, A. actinomycetemcomitans, C. albicans, P. gingivalis, F. nucleatum, S. gordonii): antimicrobial activities | bactericidal concentration ([2]; n-6 fatty acids): 25 µg/mL | antimicrobial activity [3]: greatest antimicrobial activity

CCCCC/C=C\C/C=C\C/C=C\C/C=C\CCCC(=O)O [arachidonic acid]
antimicrobial activity [3]: greatest antimicrobial activity

CCCCC/C=C\C/C=C\CCCCCCCC(=O)O [linoleic acid]
activity against C. albicans [4]: < 40% | bactericidal concentration [2]: 25 µg/mL | MIC [5]: 450 µM | MIC ([5]; printed as corresponding to 0.45 μmoles/ml): 0.13 µg/mL | antimicrobial activity [3]: greatest antimicrobial activity

CCCCCCCCCCCCCCCC(=O)O [palmitic acid]
antimicrobial activity [3]: greatest antimicrobial activity

CCCCCC/C=C\CCCCCCCC(=O)O [palmitoleic acid]
antimicrobial activity [3]: greatest antimicrobial activity
